Source: PubChem BioAssay (NCI)
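The compound was tested at five concentrations on cells cultured in 96-well plates, with a 48-hour exposure period. GI50: concentration for 50% inhibition of growth. TGI marks complete inhibition of growth.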

Assays:
Test in all cases: DTP human tumour cell line panel, 48 h
[1] = system: 786-0 renal
[2] = system: A498 renal
[3] = system: ACHN renal
[4] = system: MCF7 breast
[5] = system: SF-268 CNS
[6] = system: SF-295 CNS
[7] = system: SK-MEL-2 melanoma
[8] = system: SK-MEL-5 melanoma
[9] = system: SK-OV-3 ovarian

SMILES	TGI [1] [µM]	TGI [2] [µM]	TGI [3] [µM]	TGI [4] [µM]	TGI [5] [µM]	TGI [6] [µM]	TGI [7] [µM]	TGI [8] [µM]	TGI [9] [µM]	GI50 [4] [µM]	GI50 [5] [µM]	GI50 [6] [µM]	GI50 [8] [µM]	GI50 [9] [µM]
COc1cc(CC2c3cc(OC)c(OC)cc3CCN2C)c(Oc2cc3c(cc2OC)-c2c(O)c(OC)cc4c2C(C3)N(C)CC4)cc1OC (centres undefined)	84.4	43	49.8	29.1	46	35.4	58.5	32.8	> 100	–	–	–	–	–
COC(OC)C1OC(CO)C(n2ccc(N)nc2=O)C1O (centres undefined)	> 100	> 100	> 100	> 100	> 100	> 100	> 100	> 100	> 100	–	–	–	–	–
O=C(NC1CCN(Cc2ccccc2)CC1)c1cc2nc(-c3ccc(Cl)s3)cc(C(F)(F)F)n2n1	–	–	–	> 100	> 100	> 100	–	> 100	> 100	8.98	> 100	> 100	6.34	61.6
C=C(CC[C@@H](C(=O)O)[C@H]1[C@H](O)C[C@@]2(C)C3=CC[C@@H](C(=C)C)[C@](C)(CCC(=O)O)C3=CC[C@]12C)C(C)C	31.1	38.8	31.4	32.6	–	31.4	34.3	36.3	31.9	–	–	–	–	–
C=CCSC1=N/C(=C\c2ccccc2)C(=O)N1CC=C	> 100	83.9	> 100	> 100	> 57.7	> 100	97.6	37.3	> 100	–	–	–	–	–
O=c1c(C=Nc2ccc([N+](=O)[O-])cc2)c(O)n(-c2ccccc2)c(=O)n1-c1ccccc1	> 100	> 100	> 100	> 100	> 100	> 100	> 100	> 100	> 100	–	–	–	–	–
COC(=O)n1c(=O)n(-c2ccccc2)c(=O)n1C(=O)OC	> 100	> 100	–	> 100	> 100	–	> 100	> 100	> 100	–	–	–	–	–
Cc1ccc(N2CCc3c(C)c(C#N)c4nc5ccccc5n4c32)cc1	> 100	–	> 100	> 100	> 100	> 100	> 100	> 100	> 100	–	–	–	–	–
COC(=O)/C=C1\CCC(C)(C(=O)NS(=O)(=O)c2ccc(C)cc2)C1(C)C (centres undefined)	> 100	> 100	> 100	> 100	> 100	> 100	> 100	> 100	> 100	–	–	–	–	–
O=c1[nH]nc(-c2ccccc2)n1/N=C/c1c(O)ccc2ccccc12	> 100	–	> 100	> 100	> 100	82.4	> 100	> 100	68.4	–	–	–	–	–
O=C1COc2ccc([N+](=O)[O-])cc2C(=O)C1	> 10	> 10	> 10	> 10	> 10	> 10	> 10	> 10	> 10	–	–	–	–	–
C1CCC(OC2CSC2)OC1 (centres undefined)	–	> 100	> 100	> 100	> 100	> 100	–	> 100	> 100	–	–	–	–	–
O=S1(=O)c2ccccc2C(=NO)c2ccccc21	> 100	> 100	> 100	> 100	> 100	> 100	> 100	> 100	> 100	–	–	–	–	–
COc1cccc(/C=N/[N-]C(N)=O)c1[O-].[Ni+2].[OH3+].c1cnc2c(c1)ccc1cccnc12	> 100	> 100	> 100	–	> 100	> 100	> 100	> 100	> 100	–	–	–	–	–
N#Cc1c(N2CCCC2)ncn(Cc2ccccc2)c1=O	> 100	> 100	> 100	–	> 100	> 100	> 100	> 100	> 100	–	–	–	–	–
CCCCCCCCCCCCCCCCCCNc1ccn(C2OC(COP(=O)(O)OCC3OC(n4cc(C)c(=O)[nH]c4=O)CC3N=[N+]=[N-])C(O)C2O)c(=O)n1 (centres undefined)	> 100	–	> 100	> 100	43.6	32.6	39.8	57.2	40.3	–	–	–	–	–
O=C1/C(=C/c2ccccc2[N+](=O)[O-])N=C(c2ccccc2)N1C1Nc2cc3c(cc2S1)NC(N1C(=O)/C(=C/c2ccccc2[N+](=O)[O-])N=C1c1ccccc1)S3 (centres undefined)	79.6	> 100	> 100	> 100	> 100	> 100	> 100	> 100	–	–	–	–	–	–
CCOC(=O)CNC(=O)C(C)NC(=O)C(NC(=O)CC(c1ncc[nH]1)c1ncc[nH]1)C(C)CC (centres undefined)	> 100	> 100	> 100	> 100	> 100	> 100	> 100	–	> 100	–	–	–	–	–
COC(=O)c1cc(C#N)[nH]c1-c1ccc(C)s1	> 100	68.1	> 100	–	> 100	> 100	–	–	> 100	–	–	–	–	–
O=C1Cc2c([nH]c3ccc(Br)cc23)-c2ccccc2N1	> 100	> 100	> 100	–	> 100	> 100	> 100	> 100	> 100	–	–	–	–	–
O=[N+]([O-])c1ccc(N=Nc2c(O)c(S(=O)(=O)O)cc3cc(S(=O)(=O)O)ccc23)cc1	> 100	> 100	> 100	> 100	–	> 100	> 100	> 100	> 100	–	–	–	–	–
O=C1C=C(Br)c2c(Br)sc(Br)c21	> 19.6	–	15.3	17.4	> 57.3	99.4	49.3	31.4	64.3	–	–	–	–	–
O=C(c1ccccc1)c1ccc2nc(-c3c(Cl)c(Cl)c(Cl)c(Cl)c3C(=O)N/N=C/c3ccccc3)[nH]c2c1	73.7	–	49.2	41.9	> 100	88.7	67.5	33.4	> 100	–	–	–	–	–
